From US4933348A, “Heterocyclic compounds” (priority 1985, dated 1990) come the findings set out here.

In assay [1] the test system is SRS-A-induced contraction of guinea-pig ileum. Kind of assay: Inhibition of SRS-A-induced contraction of isolated guinea-pig ileum. The note with it: submaximal concentration of SRS-A (derived from guinea pig lung), incubation 20 minutes, 37° C., read-out: IC 50 (M), Ileum, Anti-SRS-A. Details: species or system guinea-pig (male Hartley). On the procedure: (§1) (1) Inhibition of SRS-A- and LTD4 -induced contraction of guinea-pig ileum and trachea
(§2) Methods: Male Hartley guinea-pigs, weighing 500 to 700 g were sacrificed by a blow on the head The ileum and tracheal strips prepared according to the method of Constantine (Constantine, J. W., J. Pharm Pharmacol., 17, 384 (1965)) were suspended with 1.0 g tension in an organ bath containing 10 ml of Tyrode solution equilibrated with a mixture of 95% O2 and 5% CO2 at 37° C. The tissues were equilibrated for 60 minutes; during this period the Tyrode solution was replaced every 15 minutes and the loading tension was adjusted to 1.0 g. The developed tension of the tissues was measured isometrically with a strain gauge transducer, and recorded on a Recticorder. Both the contractile response of the ileum to submaximal concentration of SRS-A (derived from guinea pig lung) and tracheal response to 10^-8 M LTD4 were recorded in the absence and then in the presence of various concentrations of test compounds. The incubation time of the compounds was 20 minutes.

The test system of assay [2] is LTD4-induced contraction of guinea-pig trachea. Put plainly: Inhibition of LTD4-induced contraction of isolated guinea-pig trachea. Further details: species or system guinea-pig (male Hartley). The note with it: 10^-8 M LTD4; for inhibition of the contractions induced by LTD4 (in words): isolated guinea pig trachea; for IC50: isolated guinea-pig trachea, incubation 20 minutes, 37° C., read-out: IC 50 (M), Trachea, Anti-LTD4. The method, then:
as §1, §2

Assay [3] concerns LTD4-enhanced vascular permeability. Kind of assay: Inhibition of LTD4-enhanced vascular permeability in guinea-pig. The assay is classed as in vivo, guinea-pig (male Hartley). The note with it: for ED50: Cavia porcellus, po, 30 minutes before LTD4 injection (5 ng intradermal); for anti-leukotriene effect by oral route (in words) / inhibition of LTD4-enhanced vascular permeability (in words): p.o.; for inhibition of LTD4-enhanced vascular permeability (in words): 30 minutes before LTD4 injection. The method, then: (2) Inhibition of LTD4 -enhanced vascular permeability in guinea-pig
Method: Male Hartley quinea-pigs weighing 270 to 305 g, starved for 16 hours, were intradermally injected 5 ng LTD4 in a volume of 0.1 ml into two sites on the shaved back. In addition, 0.1 ml of vehicle was injected intradermally in each animal to see non-specific irritation. One ml of saline containing 1% Evans blue was intravenously injected 2 minutes before LTD4 injection. Animals were sacrificed 30 minutes after LTD4 injection. The leaked dye at the site of LTD4 or vehicle injection was extracted according to the method of Harada et al. (Harada, M. et al., J. Pharm. Pharmacol., 23, 218 (1971)) and measured photometrically at 620 nm. The LTD4 -induced skin reaction was expressed as a difference in the amount of dye between LTD4 and vehicle. Test compounds were orally administered 30 minutes before LTD4 injection.

On to `CCCc1c(CSc2nnc(SCCC[S+]([O-])CC(=O)O)s2)ccc(C(C)=O)c1O` (stereo not shown) [Example 35, [3-[[5-[(4-acetyl-3-hydroxy-2-propylbenzyl)thio]-1,3,4-thiadiazol-2-yl]thio]propylsulfinyl]acetic acid], for which, in assay [1], the IC50 is 1.1e-08 M. For the same compound, in assay [2], the “inhibition of the contractions induced by LTD4 (in words)” value (shortened to “inhibition of the contractions induced”) is recorded as “potently inhibited” and the IC50 stood at 7.8e-09 M.

For `CCCc1c(CSc2nnc(SCCCCCCC(=O)O)s2)ccc(C(C)=O)c1O` [Example 13, 7-[[5-[(4-acetyl-3-hydroxy-2-propylbenzyl)thio]-1,3,4-thiadiazol-2-yl]thio]heptanoic acid], the IC50 in assay [1] is 2.1e-08 M.

Turning to `CCCc1c(CSc2nnc(SCc3ccc(OCC(=O)O)cc3)s2)ccc(C(C)=O)c1O` [Example 33, [p-[[[5-[(4-acetyl-3-hydroxy-2-propylbenzyl)thio]-1,3,4-thiadiazol-2-yl]thio]methyl]phenoxy]acetic acid], the IC50 in assay [1] came to 2.9e-10 M. In addition, in assay [2], the “inhibition of the contractions induced” value is listed as “potently inhibited” and the IC50 came out at 5.4e-08 M.

Take `CCCc1c(CSc2snc(O)c2C(=O)O)ccc(C(C)=O)c1O` [Example 44, 5-[(4-acetyl-3-hydroxy-2-propylbenzyl)thio]-3-hydroxy-4-isothiazolecarboxylic acid]: in assay [1], the IC50 turned out to be 4.5e-08 M. In assay [2], the “inhibition of the contractions induced” value is listed as “potently inhibited” and the IC50 came to 1.9e-07 M.

For `CCCc1c(CSc2nnc(SCCCCC(=O)O)s2)ccc(C(C)=O)c1O` [Example 11, 5-[[5-[(4-acetyl-3-hydroxy-2-propylbenzyl)thio]-1,3,4-thiadiazol-2-yl]thio]valeric acid], the IC50 in assay [1] amounted to 9.1e-09 M.

As for `CCCc1c(CSc2nnc(NC(=O)CCC(=O)O)s2)ccc(C(C)=O)c1O` [Example 24, 4-[[5-[(4-acetyl-3-hydroxy-2-propylbenzyl)thio]-1,3,4-thiadiazol-2-yl]amino]-4-oxobutyric acid], the IC50 in assay [1] came to 3.3e-09 M.

As a reminder, the ED50 is the dose that gives a 50% effect, or the effect in half of the subjects. As to `CCCc1c(CSc2nnc(SCc3ccc(OC(C)C(=O)O)cc3)s2)ccc(C(C)=O)c1O` (stereo not shown) [Example 34, 2-[p-[[[5-[(4-acetyl-3-hydroxy-2-propylbenzyl)thio]-1,3,4-thiadiazol-2-yl]thio]methyl]phenoxy]propionic acid], the ED50 in assay [3] came out at 4.2 mg/kg.

As to `CCCc1c(CSc2nnc(SCCCC(=O)O)s2)ccc(C(C)=O)c1O` [Example 4, 4-[[5-[(4-acetyl-3-hydroxy-2-propylbenzyl)thio]-1,3,4-thiadiazol-2-yl]thio]butyric acid], in assay [1], the IC50 turned out to be 4.1e-09 M.

On to `CCCc1c(CSc2nccc(O)n2)ccc(C(C)=O)c1O` [Example 14, 2-[(4-acetyl-3-hydroxy-2-propylbenzyl)thio]-4-hydroxypyrimidine], for which the IC50 in assay [1] was determined as 5e-08 M.

For `CCCc1c(CSc2nnc(SCc3ccc(CSCC(=O)O)cc3)s2)ccc(C(C)=O)c1O` [Example 43, [[p-[[[5-[(4-acetyl-3-hydroxy-2-propylbenzyl)thio]-1,3,4-thiadiazol-2-yl]thio]methyl]benzyl]thio]acetic acid], the IC50 in assay [1] stood at 4.7e-09 M. Besides, in assay [2], the “inhibition of the contractions induced” value is “potently inhibited” and the IC50 was 3.8e-09 M.

Consider `CCCc1c(CSc2nnc(SCc3ccc(CCC(=O)O)cc3)s2)ccc(C(C)=O)c1O` [Example 46, 3-[p-[[[5-[(4-acetyl-3-hydroxy-2-propylbenzyl)thio]-1,3,4-thiadiazol-2-yl]thio]methyl]phenyl]propionic acid], for which the IC50 in assay [1] amounted to 3.1e-08 M.

Take `CCCc1c(CSc2nnc(SCc3ccc(C(=O)O)cc3)s2)ccc(C(C)=O)c1O` [Example 37, p-[[5-[(4-acetyl-3-hydroxy-2-propylbenzyl)thio]-1,3,4-thiadiazol-2-yl]thiomethyl]benzoic acid]: in assay [3], the ED50 was found to be 7 mg/kg, the “anti-leukotriene effect by oral route (in words)” value was “potent anti-leukotriene effect” and the “inhibition of LTD4-enhanced vascular permeability (in words)” value was “dose-dependently inhibited”. Further, the IC50 in assay [1] worked out at 3.6e-09 M. Further, in assay [2], the “inhibition of the contractions induced” value is recorded as “potently inhibited” and the IC50 came out at 1.1e-08 M.

On to `CCCc1c(CSc2nnc(SCCCCCC(=O)OCC)s2)ccc(C(C)=O)c1O` [Example 10, ethyl 6-[[5-[(4-acetyl-3-hydroxy-2-propylbenzyl)thio]-1,3,4-thiadiazol-2-yl]thio]hexanate], for which, in assay [1], the IC50 was found to be 5.1e-08 M.

For `CCCc1c(CSc2nnc(SCCCSCC(=O)O)s2)ccc(C(C)=O)c1O` [Example 32, [[3-[[5-[(4-acetyl-3-hydroxy-2-propylbenzyl)thio]-1,3,4-thiadiazol-2-yl]thio]propyl]thio]acetic acid], in assay [1], the IC50 stood at 1.5e-10 M. In assay [2], the “inhibition of the contractions induced” value is on record as “potently inhibited” and the IC50 is 3e-09 M.

`CCCc1c(CSc2nnc(NC(=O)C(=O)O)s2)ccc(C(C)=O)c1O` [Example 22, [5-[(4-acetyl-3-hydroxy-2-propylbenzyl)thio]-1,3,4-thiadiazol-2-yl]oxamidic acid]: the IC50 in assay [1] was 2.2e-08 M.

As for `CCCc1c(CSc2nnc(SCCCS(=O)(=O)CC(=O)O)s2)ccc(C(C)=O)c1O` [Example 36, [3-[[5-[(4-acetyl-3-hydroxy-2-propylbenzyl)thio]-1,3,4-thiadiazol-2-yl]thio]propylsulfonyl]acetic acid], in assay [1], the IC50 was 1.1e-09 M. In assay [2], the “inhibition of the contractions induced” value was “potently inhibited” and the IC50 turned out to be 2.9e-09 M.

As to `CCCc1c(CSc2nnc(SCC(=O)O)s2)ccc(C(C)=O)c1O` [Example 2, [[5-[(4-acetyl-3-hydroxy-2-propylbenzyl)thio]-1,3,4-thiadiazol-2-yl]thio]-acetic acid], in assay [3], the ED50 is 11.3 mg/kg, the “anti-leukotriene effect by oral route (in words)” value was “potent anti-leukotriene effect” and the “inhibition of LTD4-enhanced vascular permeability (in words)” value was “dose-dependently inhibited”. Also, the IC50 in assay [1] is 4.2e-08 M. Besides, in assay [2], the “inhibition of the contractions induced” value is on record as “potently inhibited” and the IC50 stood at 4e-08 M.

With `CCCc1c(CSc2nnc(SCCCCCC(=O)O)s2)ccc(C(C)=O)c1O` [Example 12, 6-[[5-[(4-acetyl-3-hydroxy-2-propylbenzyl)thio]-1,3,4-thiadiazol-2-yl]thio]hexanoic acid], in assay [1], the IC50 was determined as 4e-09 M.
